IC50 data for 26 compounds are collected here from PubChem BioAssay AID367 (MTDP, 2006).

Calls of active or inactive are those of the source. How the calls were made is not given here.

Sequence of Gag-Pol polyprotein (Human immunodeficiency virus type 2 subtype A (isolate ROD)) (P04584 whole entry, looked up): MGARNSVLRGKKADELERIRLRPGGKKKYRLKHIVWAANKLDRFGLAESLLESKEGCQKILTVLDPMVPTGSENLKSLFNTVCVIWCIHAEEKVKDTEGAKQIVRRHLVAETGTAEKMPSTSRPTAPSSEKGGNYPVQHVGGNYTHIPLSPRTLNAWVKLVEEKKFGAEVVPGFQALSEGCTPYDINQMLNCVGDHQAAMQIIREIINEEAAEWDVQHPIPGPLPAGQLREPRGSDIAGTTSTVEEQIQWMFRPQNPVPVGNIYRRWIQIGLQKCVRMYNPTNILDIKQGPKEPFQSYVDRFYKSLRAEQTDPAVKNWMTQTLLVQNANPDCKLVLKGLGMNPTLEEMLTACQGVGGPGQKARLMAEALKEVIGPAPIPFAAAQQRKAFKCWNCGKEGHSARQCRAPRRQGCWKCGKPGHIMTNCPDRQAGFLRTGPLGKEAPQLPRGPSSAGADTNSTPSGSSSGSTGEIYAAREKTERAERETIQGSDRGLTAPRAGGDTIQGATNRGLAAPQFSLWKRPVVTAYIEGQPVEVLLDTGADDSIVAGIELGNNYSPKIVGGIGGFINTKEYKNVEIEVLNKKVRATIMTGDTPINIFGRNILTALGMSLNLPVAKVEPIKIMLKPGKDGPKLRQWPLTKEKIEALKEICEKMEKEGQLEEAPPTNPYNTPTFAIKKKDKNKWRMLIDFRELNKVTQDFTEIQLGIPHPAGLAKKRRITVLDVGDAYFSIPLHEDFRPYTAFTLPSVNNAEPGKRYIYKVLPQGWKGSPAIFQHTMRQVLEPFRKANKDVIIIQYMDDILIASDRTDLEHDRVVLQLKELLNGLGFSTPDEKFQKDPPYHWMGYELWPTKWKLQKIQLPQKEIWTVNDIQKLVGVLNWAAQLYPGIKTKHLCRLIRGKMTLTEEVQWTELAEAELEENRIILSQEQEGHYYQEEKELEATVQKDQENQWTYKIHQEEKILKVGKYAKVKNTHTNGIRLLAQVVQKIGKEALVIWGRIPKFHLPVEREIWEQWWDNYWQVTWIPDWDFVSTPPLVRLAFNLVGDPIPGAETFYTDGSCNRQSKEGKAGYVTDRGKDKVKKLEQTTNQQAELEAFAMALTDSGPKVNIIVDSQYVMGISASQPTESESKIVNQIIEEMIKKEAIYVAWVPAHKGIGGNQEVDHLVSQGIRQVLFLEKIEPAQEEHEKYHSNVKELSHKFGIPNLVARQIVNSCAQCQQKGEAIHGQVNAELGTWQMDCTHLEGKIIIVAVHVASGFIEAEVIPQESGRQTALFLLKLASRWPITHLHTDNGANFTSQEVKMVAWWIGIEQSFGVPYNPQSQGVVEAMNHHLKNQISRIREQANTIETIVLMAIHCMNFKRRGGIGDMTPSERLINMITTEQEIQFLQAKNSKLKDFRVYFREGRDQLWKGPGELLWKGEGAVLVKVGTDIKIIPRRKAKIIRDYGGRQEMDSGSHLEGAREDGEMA

This test has as its target Gag-Pol polyprotein (Human immunodeficiency virus type 2 subtype A (isolate ROD)) (UniProt P04584). The test is described as follows: Reverse transcriptase ribonuclease H inhibitors, biochemical concentration-response (AID 367). Conditions: HIV-2 RNase H, FRET RNA/DNA substrate cleavage.
Usually IC50 stands for the concentration needed to halve the response being measured. `CC(C)=Cc1cc(CCC/C(C)=C/Cc2c(O)cc(C)c(C(=O)O)c2O)co1`: the IC50 is 5.7 µM. The figure for `O=C(O)CCc1c2ccc(=O)c(O)c-2oc2c(O)c(O)ccc12` is 0.6 µM.

As to `C=CC(C)(C)C12CC3C(=O)N/C(=C\c4cnc[nH]4)C(=O)N3C1Nc1ccccc12` (stereo unspecified), the IC50 was > 100 µM (inactive).

On to `O=C1O/C(=C(/C(=O)O)c2ccc(O)cc2)C(O)=C1c1cc2c3c(c(O)cc(C4=C(O)/C(=C(\C(=O)O)c5ccc(O)cc5)OC4=O)c3c1)OC2=O`, for which the IC50 was 1.4 µM. Then `Cc1cccc(NC(=O)c2c(NC(=O)c3ccc([N+](=O)[O-])cc3)sc3c2CCCC3)c1`, with 2.7 µM. `COc1ccc(N2C(=O)/C(=C\c3cn(CC(=O)Nc4ccccc4)c4ccccc34)C(=O)NC2=S)cc1`: the 50% inhibitory concentration (IC50) was 2.8 µM. Then `c1ccc(C(c2cccc3c2ccc2ccccc23)C(c2ccccc2)c2cccc3c2ccc2ccccc23)cc1` (stereo unspecified), with “inactive”; and `O=[N+]([O-])c1ccc(S(=O)(=O)Cc2ccccc2)c2nonc12`, with 5 µM.

Turning to `O=S(=O)(O)c1cc(N=[N+]([O-])c2cc(S(=O)(=O)O)c3ccccc3c2)cc2ccccc12`, the IC50 entry was “inactive”.

Consider `CC1=C(C)CC(C(=O)Nc2ccc(N3C(=O)c4ccccc4C3=O)cc2)C(C(=O)O)C1` (stereo unspecified), for which the IC50 is > 100 µM (inactive). Then `Cc1ccc(N2C(=O)/C(=C/c3ccc(O)c(O)c3)SC2=S)cc1C`, with 4 µM; and `CN(C)S(=O)(=O)c1ccc(Nc2ccc(O)c3c2C(=O)c2c([N+](=O)[O-])ccc(O)c2C3=O)cc1`, with 8 µM. For `COc1c(OC)c(O)c2c(=O)cc(-c3ccc(O)c(O)c3)oc2c1OC`, the IC50 was 3 µM. Then `Nc1ccc(N=Nc2ccc(-c3ccc(O)cc3)cc2)c2ccc(S(=O)(=O)O)cc12`, with 6.3 µM; and `Cc1ccc(S(=O)(=O)/N=C2\C=C(Sc3ncn[nH]3)C(=O)c3ccccc32)cc1`, with 2 µM.

Consider `CC(C)=CCC1=C(O)[C@@](O)(CC=C(C)C)C(=O)C(C(=O)CC(C)C)=C1O`, for which the half-inhibitory concentration (IC50) is 2.8 µM. Take `CCOc1ccc(NC(=O)c2c(NC(=O)c3ccco3)sc3c2CCCCC3)cc1`: the 50% inhibitory concentration (IC50) is 6 µM. Then `COc1ccc(C(=O)NC(=S)Nc2ccc3nn(-c4ccc(C)c(Cl)c4)nc3c2)cc1[N+](=O)[O-]`, with 4.3 µM. `O=C1NC(=S)N(c2ccc(Cl)cc2)C(=O)/C1=C/c1ccc(Br)o1`: the IC50 was 1.7 µM.

For `O=C(O)C1CCCCC1c1c2ccc(=O)c(O)c-2oc2c(O)c(O)ccc12` (stereo unspecified), the half-inhibitory concentration (IC50) is 0.6 µM. The entry for `Cc1cccc(NCC(=O)N/N=C\c2c(Br)cc(Br)c(O)c2Br)c1` is “inactive”; for `O=C1NC(=S)N(c2ccccc2F)C(=O)/C1=C/c1ccc(I)o1` it is 4.9 µM; for `N#Cc1c(NC(=O)C(F)(F)F)sc2c3c(=O)c4ccccc4c(=O)c=3oc3ccccc3c12` it is “inactive”. Regarding `C=C(CCC(C(=O)O)C1CCC2(C)C3=C(CCC12C)C1(C)CCC(O)C(C)(C)C1CC3)C(C)C` (stereo unspecified), the IC50 result is “inactive”.

Consider `COc1cc(C=O)ccc1OCCCOc1cccc(Oc2ccccc2)c1`, for which the IC50 was > 100 µM (inactive). The figure for `Cc1cc(Br)ccc1N1C(=O)/C(=C/c2ccco2)C(=O)NC1=S` is 4 µM.
